Experimental data as given in patent publication US8652483B2, “Viral infection enhancing peptide” (priority 2010, dated 2014).
Where “and” joins values, the source holds several entries; their conditions need not be identical. Equal values may be shown once. No end group written: not given here.

Legend:
[1] = test system: primary peripheral blood mononuclear cells (PBMC); experiment: Cytotoxicity of SWB; format: cell-based
Jurkat T cells = experiment: Cytotoxicity of SWB; format: cell-based
Solubility limit in DMSO = format: physicochemical; settings: read-out: solubility limit in DMSO (concentrations above were not completely dissolved)
CEM-M7 cells = experiment: Cytotoxicity of SWB; format: cell-based
KG-1 cells = experiment: Cytotoxicity of SWB; format: cell-based, human
[2] = test system: R5 HIV-1 (CCR5 tropic HIV-1 NL4-3 92TH014-2); experiment: HIV-1 infection of TZM-bl cells, R5 virus; format: cell-based; settings: for enhancers of HIV infection at the lowest viral dose: 0.01 ng p24 virus; for enhancement of HIV infection: 1 ng p24 virus, 100 μg/ml peptide
[3] = Congo Red (CR) staining assay; format: physicochemical; settings: DMSO stock freshly diluted in PBS
Experimental: (§1) To investigate if SW1010 (like PAP248-286) forms insoluble aggregates, in particular amyloid like material, the reactivity of a freshly prepared SW1010 peptide solution to the amyloid specific dye Thioflavin T (ThT) was analyzed. […] Further evidence that SW1010 forms amyloid like material was derived by staining with another amyloid specific dye, Congo Red (CR) (Münch et al., 2007). […] Thus, when used to enhance retroviral infection or transduction efficiencies (FIG. 1 F), the peptide of the invention provides an important advantage over SEVI amyloid fibrils that have to be generated by agitating the monomeric PAP248-286 by several hours or days on a table rotator (Münch et al., 2007; Wurm et al., 2009).
(§2) Similarly, all SW1010 derivatives were analyzed for ThT and CR reactivity.
To test if SWB is soluble in solvents other than DMSO and can form virus enhancing amyloid like material upon diluting in PBS, the inventors resuspended SWB powder in various solvents. […] Since acetic acid stocks were highly toxic for cell culture at higher concentrations, all following SWB stock solutions were then prepared by dissolving the peptide in less cytotoxic DMSO. In all subsequent experiments the concentrations of DMSO in the presence of virus or cells were lower than 1%, preferably between about 0.2 and about 1%.

[4] = Thioflavin T (ThT) fluorescence; format: physicochemical; settings: DMSO stock freshly diluted in PBS
Experimental: as §1, §2

Row | Substance | enhancers of HIV infection at the lowest viral dose [2] | Congo Red (CR) staining [3] | ThT fluorescence [4] | enhancement of HIV infection [2] | further results
1 | QCKIKQIINMWQ [SWB] |  |  |  |  | toxic effects [1]: no toxic effects; toxic effects (Jurkat T cells): no toxic effects; solubility (Solubility limit in DMSO): 25000 µM and 38000 µg/mL; toxic effects (CEM-M7 cells): no toxic effects; toxic effects (KG-1 cells): no toxic effects
2 | SWC: variant of SW1010 of different length (KIKQIINMWQ; SW-peptide derived from peptide gp120 of HIV-1 strain MN (Gurgo et al., 1988)) | most potent enhancers | specific staining |  |  | 
3 | SWE: variant of SW1010 of different length (QCKIKQIINMW; SW-peptide derived from peptide gp120 of HIV-1 strain MN (Gurgo et al., 1988)) | most potent enhancers | specific staining | increases fluorescence intensities |  | 
4 | SWCON: peptide derived from a SW1010 homologous consensus sequence of all HIV-1 M strains (TITLPCRIKQIINMWQGVG; SW-peptide derived from peptide gp120 of HIV-1 strain MN (Gurgo et al., 1988)) | most potent enhancers | specific staining | increases fluorescence intensities |  | 
5 | SW1014: N-terminal half of SW1010 (QIINMWQEVG; SW-peptide derived from peptide gp120 of HIV-1 strain MN (Gurgo et al., 1988)) |  | specific staining | increases fluorescence intensities | weak or no effects | 
6 | SWNL43: peptide corresponding to SW1010 of the HIV-1 clone NL4-3 (TITLPCRIKQFINMWQEVG; SW-peptide derived from peptide gp120 of HIV-1 strain MN (Gurgo et al., 1988)) |  | did react with CR to a lesser extend |  | weak or no effects | 
